Converted amounts (≈) assume the structure as drawn. Blank lines part the entries; values can stand above or below the compound they belong to.
Columns and labels:
Polycomb protein EED [1] = molecular target: T1, Polycomb protein EED (Homo sapiens, UniProt O75530); details: dose 500.0 µM
Target sequence in this assay (O75530 2-441 limits assumed): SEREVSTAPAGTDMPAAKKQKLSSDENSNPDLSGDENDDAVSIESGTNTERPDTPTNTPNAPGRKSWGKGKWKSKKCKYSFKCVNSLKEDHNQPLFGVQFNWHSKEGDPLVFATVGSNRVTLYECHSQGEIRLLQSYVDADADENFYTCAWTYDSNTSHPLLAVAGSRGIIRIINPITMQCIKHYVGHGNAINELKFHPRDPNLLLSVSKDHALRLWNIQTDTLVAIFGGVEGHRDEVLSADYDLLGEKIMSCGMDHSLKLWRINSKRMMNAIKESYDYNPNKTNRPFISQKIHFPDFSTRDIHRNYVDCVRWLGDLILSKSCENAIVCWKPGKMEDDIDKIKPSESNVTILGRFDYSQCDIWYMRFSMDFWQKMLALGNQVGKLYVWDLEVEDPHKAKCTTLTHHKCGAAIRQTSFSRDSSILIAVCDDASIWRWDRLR
Description: Binding affinity to GST-tagged EED (unknown origin) assessed as thermal stability by measuring melting temperature at 500 uM by TSA method

Polycomb protein EED [2] = molecular target: T1, Polycomb protein EED; test: Binding affinity to EED (unknown origin) assessed as dissociation constant by SPR analysis
Target sequence in this assay (O75530 whole entry): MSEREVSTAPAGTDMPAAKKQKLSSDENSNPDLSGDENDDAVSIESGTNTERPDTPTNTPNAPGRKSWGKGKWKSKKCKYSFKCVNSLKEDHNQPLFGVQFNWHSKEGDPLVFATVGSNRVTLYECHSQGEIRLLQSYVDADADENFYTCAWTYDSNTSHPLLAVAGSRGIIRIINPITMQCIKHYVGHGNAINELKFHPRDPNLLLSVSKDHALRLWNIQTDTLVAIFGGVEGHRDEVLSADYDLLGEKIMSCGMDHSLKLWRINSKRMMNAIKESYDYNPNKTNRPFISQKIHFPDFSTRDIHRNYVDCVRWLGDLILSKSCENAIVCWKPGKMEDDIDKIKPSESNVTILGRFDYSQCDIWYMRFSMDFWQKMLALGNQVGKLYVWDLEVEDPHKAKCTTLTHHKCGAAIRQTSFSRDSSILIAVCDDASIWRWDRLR

[3] = Inhibition of PRC2 (unknown origin); set-up: species or system Homo sapiens
[4] = Inhibition of GST-tagged EZH2/FLAG-tagged EED (unknown origin) protein protein interaction incubated for 1 hr by AlphaLISA method; set-up: species or system Homo sapiens
Pfeiffer = test: Antiproliferative activity against human Pfeiffer cells treated for 14 days; format: functional, cell-based; details: 336 h
Polycomb protein EED [5] = molecular target: T1, Polycomb protein EED; test: Inhibition of EED (unknown origin)
Target sequence in this assay (O75530 whole entry): as above

KARPAS-422 = test: Antiproliferative activity against human KARPAS-422 cells treated for 11 days; format: functional, cell-based; details: KARPAS-422, 264 h
BC [6] = test: Inhibition of cell growth in human multiple BC cells bearing EZH2 […] mutant; format: functional, cell-based
Lymphoma cell line [7] = test: Inhibition of cell growth in human Lymphoma cell line bearing wildtype EZH2; format: functional, cell-based
Lymphoma cell line [8] = test: Inhibition of cell growth in human Lymphoma cell line bearing EZH2 […] mutant; format: functional, cell-based
BC [9] = test: Inhibition of cell growth in human multiple BC cells bearing wildtype EZH2; format: functional, cell-based
Polycomb protein EED [10] = molecular target: T1, Polycomb protein EED; test: Binding affinity to EED (unknown origin) assessed as dissociation constant
Target sequence in this assay (O75530 whole entry): as above

Polycomb protein EED [11] = molecular target: T1, Polycomb protein EED; test: Inhibition of human EED (76 to 441 residues) expressed in Escherichia coli strain BL21(DE3) by alpha screen assay
Target sequence in this assay (O75530 whole entry): as above

[12] = Inhibition of PRC2 HMTase activity in human G-401 cells using nucleosome core particles as substrate in presence of activation peptide H3K27me3 (21 to 44 residues)
[13] = Oral bioavailability in CD-1 mouse; format: ADME, organism-based; details: in vivo
LNCaP C4-2 = test: Antiproliferative activity against human LNCaP C4-2 cells
[14] = Antiproliferative activity against human ARCaP cells expressing sh RNA EPLIN
LNCaP C4-2B [15] = test: Antiproliferative activity against human LNCaP C4-2B cells expressing TaxR
LNCaP C4-2B [16] = test: Antiproliferative activity against human LNCaP C4-2B cells
[17] = Antiproliferative activity against human ARCaPE cells expressing sh Ctrl; details: ARCaP
[18] = Solubility of the compound at pH 7.4; format: physicochemical; details: buffer
[19] = Binding affinity to EZH2-EED (unknown origin) protein interaction assessed as inhibition constant by FP binding assay; set-up: species or system Homo sapiens
[20] = Inhibition of EZH2-EED (unknown origin) protein interaction by FP binding assay; set-up: species or system Homo sapiens

ΔTm (Polycomb protein EED [1]): 18 °C
Structure (SMILES): CN(C)[C@@H]1CN(C2CCc3cccc(F)c32)C[C@H]1c1ccc(N2CCN(S(C)(=O)=O)CC2)cc1 (stereo partly specified)

Kd (Polycomb protein EED [2]): 0.5 nM
IC50 [3]: 50 nM
Structure (SMILES): Cc1ncccc1-c1cnc(NCc2c(F)cc(N)c3c2CCO3)n2cnnc12

Structure (SMILES): Cc1ncccc1-c1cnc(NCc2c(F)ccc3c2CCO3)n2cnnc12
Kd (Polycomb protein EED [2]): 0.4 nM
IC50 [3]: 5 nM

IC50 [4]: 32 µM
Structure (SMILES): CCCCc1ccc(Nc2nnc(SCc3occc3C(=O)O)s2)cc1

Structure (SMILES): CC(=O)N1CC=C(c2cnc(NCC3Cc4cc(F)ccc4O3)n3cnnc23)CC1 (stereo unspecified)
IC50 (Pfeiffer): 0.7 nM
IC50 (Polycomb protein EED [5]): < 20 nM
IC50 (KARPAS-422): 7 nM

Structure (SMILES): CN1CC=C(c2cnc(NCC3Cc4cc(F)ccc4O3)n3cnnc23)CC1 (stereo unspecified)
IC50 (Pfeiffer): 2 nM
IC50 (Polycomb protein EED [5]): < 20 nM
IC50 (KARPAS-422): 2.8 nM

Structure (SMILES): CS(=O)(=O)N1CC=C(c2cnc(NCC3Cc4cc(F)ccc4O3)n3cnnc23)CC1 (stereo unspecified)
IC50 (Pfeiffer): 1 nM
IC50 (Polycomb protein EED [5]): < 20 nM
IC50 (KARPAS-422): 13 nM

Structure (SMILES): C=CC(=O)Nc1cc(Nc2nccc(-c3cn(C)c4ccccc34)n2)c(OC)cc1N(C)CCN(C)C [OSIMERTINIB]
IC50 (BC [6]): 15 nM
IC50 (Lymphoma cell line [7]): 15 nM
IC50 (Lymphoma cell line [8]): 15 nM
IC50 (BC [9]): 15 nM

Kd (Polycomb protein EED [10]): 163 nM
Structure (SMILES): Cc1ncccc1-c1cc2c(n3cnnc13)NCc1c(F)ccc3c1[C@H](CO3)CO2 [POCIREDIR]

Kd (Polycomb protein EED [10]): 900 nM
IC50 (Polycomb protein EED [11]): 2100 nM
Structure (SMILES): Cc1nc(NCc2c(F)ccc3c2CCO3)sc1-c1ccnn1C

IC50 (Polycomb protein EED [5]): 20 nM
IC50 [12]: 220 nM
F [13]: 10%
Structure (SMILES): CS(=O)(=O)c1ccc(-c2cnc(NCc3ccco3)n3cnnc23)cc1

IC50 (Polycomb protein EED [5]): < 100 nM
Structure (SMILES): Cc1ncccc1-c1cnc(NCC2Cc3cc(F)ccc3O2)c2nncn12 (stereo unspecified)

Kd (Polycomb protein EED [10]): 5200 nM
IC50 (Polycomb protein EED [11]): 2100 nM
Structure (SMILES): Cc1nc(NCc2cccc3c2OCO3)sc1-c1ccn(C)n1

Structure (SMILES): CCOP(=O)(OCC)C(NC(=O)[C@H](Cc1ccc(-c2ccccc2)cc1)NC(=O)/C=C/c1ccc(-c2ccccc2)cc1)P(=O)(OCC)OCC
IC50 (LNCaP C4-2): 56.1 µM
IC50 [14]: 260 nM
IC50 (LNCaP C4-2B [15]): 6.87 µM
IC50 (LNCaP C4-2B [16]): 91.1 µM
IC50 [17]: 64.9 µM

Kd (Polycomb protein EED [2]): 2.4 nM
IC50 [3]: 16 nM
solubility [18]: 0.2 µM (≈ 0.0822 µg/mL)
Structure (SMILES): Cc1ncccc1-c1cnc(NCc2c(F)cc(Cl)c3c2CCO3)n2cnnc12

IC50 [4]: 64 µM
Structure (SMILES): CCOc1ccc(C(=O)CSc2nnc(-c3ccc(O)cc3)c(-c3ccc(O)cc3)n2)cc1NC(=O)CC

Structure (SMILES): CN1CC=C(c2cnc(NCC3Cc4cc(F)ccc4O3)c3nncn23)CC1 (stereo unspecified)
IC50 (Polycomb protein EED [5]): < 100 nM

Structure (SMILES): COC(=O)C1=C(C)NC(C)=C(C(=O)OC)C1c1ccccc1[N+](=O)[O-] [NIFEDIPINE]
Ki [19]: 66.6 µM
IC50 [20]: 343 µM

Structure (SMILES): CN1CC=C(c2cnc(NCC3Cc4cc(F)ccc4O3)c3cncnc23)CC1 (stereo unspecified)
IC50 (Polycomb protein EED [5]): < 100 nM

Reference: ChEMBL document CHEMBL5126528, “Recent strategies targeting Embryonic Ectoderm Development (EED) for cancer therapy: Allosteric inhibitors, PPI inhibitors, and PROTACs” (Eur J Med Chem, 2022)
